In patent US12037333B2, “Pyridopyrazine and pyridotriazine inhibitors of influenza virus replication” (priority 2018, dated 2024):

System: Influenza type A (strain A/PR/8/34, ATCC VR-95)
Experiment: Influenza antiviral assay: inhibition of virus-induced cytopathic effects (CPE) in MDCK cells, XTT dye reduction
Type: cell-based
Details: strain A/PR/8/34, MDCK cells, CPE inhibition at 4 days
[1] = Influenza A virus, H1N1 / PR/8, MDCK, 96 h

CCN1C(=O)c2c(O)c(=O)ccn2N(C23c4ccccc4CC2Cc2c(F)cccc23)C1C (centres unmarked) [Compound A138]
EC50 [1]: 125 to 250 nM

O=C1c2c(O)c(=O)ccn2N(C23c4ccccc4CC2Cc2c(F)cccc23)CN1CC1CCCCO1 (centres unmarked) [Compound A133]
EC50 [1]: 125 to 250 nM

O=C1c2c(O)c(=O)ccn2N(C23c4ccccc4CC2Cc2c3ccc(F)c2F)CN1Cc1ccccc1 (centres unmarked) [Compound A11, 3-Benzyl-1-(1,2-difluoro-9a,10-dihydro-9H-indeno[1,2-a]inden-4b-yl)-5-hydroxy-2,3-dihydro-1H-pyrido[2,1-t][1,2,4]triazine-4,6-dione]
EC50 [1]: > 500 nM

CCN1CN(C23c4ccccc4CC2Cc2c(C)cccc23)n2ccc(=O)c(O)c2C1=O (centres unmarked) [Compound A82]
EC50 [1]: < 125 nM

CCN1CN(C23c4ccccc4CC2Cc2c(Cl)cccc23)n2ccc(=O)c(O)c2C1=O (centres unmarked) [Compound A55]
EC50 [1]: < 125 nM

CC1N(CC2CC2)C(=O)c2c(O)c(=O)ccn2N1C12c3ccccc3CC1Cc1c2ccc(F)c1F (centres unmarked) [Compound A128]
EC50 [1]: 250 to 375 nM

CN1CN(C23c4ccccc4CC2Cc2c3ccc(F)c2F)n2ccc(=O)c(O)c2C1=O (centres unmarked) [Compound A6, 1-(1,2-Difluoro-9a,10-dihydro-9H-indeno[1,2-a]inden-4b-yl)-5-hydroxy-3-methyl-2,3-dihydro-1H-pyrido[2,1-f][1,2,4]triazine-4,6-dione]
EC50 [1]: < 125 nM

CC1N(CC(F)F)C(=O)c2c(O)c(=O)ccn2N1C12c3ccccc3CC1Cc1c2ccc(F)c1F (centres unmarked) [Compound A136]
EC50 (Influenza A (H1N1)): 375 to 500 nM

O=C1c2c(O)c(=O)ccn2N(C23c4ccccc4CC2Cc2ccccc23)CN1Cc1ccccc1 (centres unmarked) [Compound A4, 3-Benzyl-1-(9a,10-dihydro-9H-indeno[1,2-a]inden-4b-yl)-5-hydroxy-2,3-dihydro-1H-pyrido[2,1-f][1,2,4]triazine-4,6-dione]
EC50 [1]: > 500 nM

CN1C(=O)c2c(O)c(=O)ccn2N(C23c4cccc(F)c4CC2Cc2c(F)cccc23)C1CN (centres unmarked) [Compound A107, 2-(aminomethyl)-1-(1,8-difluoro-9a,10-dihydroindeno[1,2-a]inden-4b(9H)-yl)-5-hydroxy-3-methyl-2,3-dihydro-1H-pyrido[2,1-f][1,2,4]triazine-4,6-dione]
EC50 [1]: 125 to 250 nM

O=C1c2c(O)c(=O)ccn2N(C23c4cccc(F)c4CC2Cc2c(F)cccc23)CN1CC1CC1 (centres unmarked) [Compound A76]
EC50 [1]: < 125 nM

COCCN1CN(C23c4ccccc4CC2Cc2c(F)cccc23)n2ccc(=O)c(O)c2C1=O (centres unmarked) [Compound A69]
EC50 [1]: < 125 nM

CCOC12Cc3ccccc3C1(N1CN(C)C(=O)c3c(O)c(=O)ccn31)c1ccccc1C2 (centres unmarked) [Compound A57]
EC50 [1]: < 125 nM

COCCN1CN(C23c4ccccc4CC2Cc2ccccc23)n2ccc(=O)c(O)c2C1=O (centres unmarked) [Compound A110]
EC50 [1]: 125 to 250 nM

O=C1c2c(O)c(=O)ccn2N(C23c4cccc(F)c4CC2Cc2c(F)cccc23)CN1CC(F)F (centres unmarked) [Compound A71]
EC50 [1]: < 125 nM

CC1N(CC2CC2)C(=O)c2c(O)c(=O)ccn2N1C12c3ccccc3CC1Cc1c(Cl)cccc12 (centres unmarked) [Compound A140]
EC50 [1]: 250 to 375 nM

COCCN1CN(C23c4ccccc4CC2Cc2c3ccc(F)c2F)n2ccc(=O)c(O)c2C1=O (centres unmarked) [Compound A70]
EC50 [1]: < 125 nM

CN1CN(C23c4ccccc4CC2Cc2cccc(F)c23)n2ccc(=O)c(O)c2C1=O (centres unmarked) [Compound A145]
EC50 [1]: < 125 nM

CN1CN(C23c4ccccc4CC2(C(F)F)Cc2ccccc23)n2ccc(=O)c(O)c2C1=O (centres unmarked) [Compound A63]
EC50 [1]: 125 to 250 nM

CC(C)CN1C(=O)c2c(O)c(=O)ccn2N(C23c4ccccc4CC2Cc2c(F)cccc23)C1C (centres unmarked) [Compound A117]
EC50 [1]: > 500 nM

CCN1CN(C23c4ccccc4CC2Cc2ccc(F)cc23)n2ccc(=O)c(O)c2C1=O (centres unmarked) [Compound A52]
EC50 [1]: < 125 nM

CN1C(=O)c2c(O)c(=O)ccn2N(C23c4cccc(F)c4CC2Cc2c(F)cccc23)C1CO (centres unmarked) [Compound A59]
EC50 [1]: < 125 nM

CC1N(C)C(=O)c2c(O)c(=O)ccn2N1C12c3ccccc3CC1Cc1ccccc12 (centres unmarked) [Compound A158]
EC50 [1]: 125 to 250 nM

O=C1c2c(O)c(=O)ccn2N(C23c4ccccc4CC2Cc2c(Cl)cccc23)CN1CCCF (centres unmarked) [Compound A102]
EC50 [1]: 125 to 250 nM

CCN1CN(C23c4ccccc4CC2Cc2c3ccc(Cl)c2Cl)n2ccc(=O)c(O)c2C1=O (centres unmarked) [Compound A161]
EC50 [1]: < 125 nM

O=C1c2c(O)c(=O)ccn2N(C23c4ccccc4CC2Cc2c(Cl)cccc23)CN1C1CC1 (centres unmarked) [Compound A93]
EC50 [1]: 125 to 250 nM

O=C1c2c(O)c(=O)ccn2N(C23c4ccccc4CC2Cc2c3ccc(F)c2F)CN1CC1CC1 (centres unmarked) [Compound A9, 3-Cyclopropylmethyl-1-(1,2-difluoro-9a,10-dihydro-9H-indeno[1,2-a]inden-4b-yl)-5-hydroxy-2,3-dihydro-1H-pyrido[2,1-f][1,2,4]triazine-4,6-dione]
EC50 [1]: > 500 nM

COCCN1CN(C23c4ccccc4CC2Cc2c(Cl)cccc23)n2ccc(=O)c(O)c2C1=O (centres unmarked) [Compound A101]
EC50 [1]: 125 to 250 nM

CCN1CN(C23c4ccccc4CC2(C)Cc2cc(F)ccc23)n2ccc(=O)c(O)c2C1=O (centres unmarked) [Compound A116]
EC50 [1]: < 125 nM

O=C1c2c(O)c(=O)ccn2N(C23c4ccccc4CC2Cc2cc(F)c(F)cc23)CN1CCc1cccc(F)c1 (centres unmarked) [Compound A28, 1-(2,3-difluoro-9a,10-dihydroindeno[1,2-a]inden-4b(9H)-yl)-3-(3-fluorophenethyl)-5-hydroxy-2,3-dihydro-1H-pyrido[2,1-f][1,2,4]triazine-4,6-dione]
EC50 [1]: 125 to 250 nM

CCN1CN(C23c4ccccc4CC2Cc2c3ccc(C)c2F)n2ccc(=O)c(O)c2C1=O (centres unmarked) [Compound A98]
EC50 [1]: 250 to 375 nM

O=C1c2c(O)c(=O)ccn2N(C23c4ccccc4CC2Cc2cc(F)c(F)cc23)CN1Cc1ccccc1 (centres unmarked) [Compound A21, 3-benzyl-1-(2,3-difluoro-9a,10-dihydroindeno[1,2-a]inden-4b(9H)-yl)-5-hydroxy-2,3-dihydro-1H-pyrido[2,1-f][1,2,4]triazine-4,6-dione]
EC50 [1]: 250 to 375 nM

COCCN1C(=O)c2c(O)c(=O)ccn2N(C23c4ccccc4CC2Cc2c3ccc(F)c2F)C1C (centres unmarked) [Compound A113]
EC50 [1]: 125 to 250 nM

O=C1c2c(O)c(=O)ccn2N(C23c4ccccc4CC2Cc2c3ccc(F)c2F)CN1C1CCC1 (centres unmarked) [Compound A92, 3-Cyclobutyl-1-(1,2-difluoro-9a,10-dihydroindeno[1,2-a]inden-4b(9H)-yl)-5-hydroxy-2,3-dihydro-1H-pyrido[2,1-f][1,2,4]triazine-4,6-dione]
EC50 [1]: 250 to 375 nM

CC(C)N1CN(C23c4cccc(F)c4CC2(C)Cc2c(F)cccc23)n2ccc(=O)c(O)c2C1=O (centres unmarked) [Compound A89]
EC50 [1]: 125 to 250 nM
